Here are results for seven molecules from patent US20250161428A1, “PREVENTING/TREATING PSEUDOMONAS AERUGINOSA INFECTION” (priority 2022, published 2025).

One experiment relates to mAb 1B1. As to the kind of experiment: mAb inhibition ELISA with synthetic oligosaccharides, mAb 1B1. The class given is binding, mouse. The note with it: P. aeruginosa PAO1 BAA-47 LPS or whole cell coated plates, 10 μg/ml mAb. From the text: FIGS. 15A, 15B, and 15C show inhibition ELISAs of mAbs 1B1 (FIG. 15A), 3C4 (FIG. 15B) and 3B8 (FIG. 15C) with LPS (left hand panels; square markers—P. aeruginosa PAO1 BAA-47, inverted triangle markers—P. aeruginosa (wzy::Gm)(Δpa5458), diamond markers—N. meningitidis galE/lpt3 and circular markers—PBS control) or synthetic oligosaccharides representing the terminal methylated rhamnan (right hand panels; solid circle markers—pentasaccharide, open square markers—tetrasaccharide, open circle markers—trisaccharide, inverted triangle markers—disaccharide, diamond markers—disaccharide with linker, triangle markers—L-monomer, solid square markers—D-monomer) against P. aeruginosa PAO1 BAA-47 LPS. Serial dilution, as shown on the x-axis, of either LPS or synthetic oligosaccharide was combined at an equal volume with 10 μg/ml mAb. After 1 h incubation, 100 μl of this inhibition mixture was added to PAO1 BAA-47 LPS coated plates. A secondary mAb specific for the primary mAb was added and absorbance was measured after a colour reagent was added. The absorbance obtained when the mAb is no longer inhibited by additional LPS or synthetic oligosaccharide is equal to inhibition by PBS.
FIGS. 15D, 15E, and 15F show inhibition ELISAs of mAbs 1B1 (FIG. 15D), 3C4 (FIG. 15E) and 3B8 (FIG. 15F) with LPS (left hand panels; square markers—P. aeruginosa PAO1 BAA-47, inverted triangle markers—P. aeruginosa (wzy::Gm)(Δpa5458), diamond markers—N. meningitidis galE/lpt3 and circle markers—PBS control) or synthetic oligosaccharides representing the terminal methylated rhamnan (right hand panels; solid circle markers—pentasaccharide, open square markers—tetrasaccharide, open circle markers—trisaccharide, inverted triangle markers—disaccharide, diamond markers—disaccharide with linker, triangle markers—L-monomer, blue—D-monomer) against P. aeruginosa PAO1 BAA-47 whole cells. Serial dilution, as shown on the x-axis, of either LPS or synthetic oligosaccharide was combined at an equal volume with 10 μg/ml mAb. After 1 h incubation, 100 μl of this inhibition mixture was added to PAO1 BAA-47 whole cell coated plates. A secondary mAb specific for primary the mAb was added and absorbance measured after a colour reagent was added. Absorbance obtained when the mAb is no longer inhibited by additional LPS or synthetic oligosaccharide is equal to inhibition by PBS.
mAb inhibition ELISA: Wells of Nunc Maxisorp EIA plates were coated with either 1 μg of P. aeruginosa LPS in PBS overnight at 4° C. or P. aeruginosa killed whole cells in dH2O in a drying oven overnight, and then brought to RT before use. Plates were blocked with 1% BSA-PBS for 1 h at RT, and then wells were washed with PBS-T. During the blocking step, the inhibition was set-up. Either LPS or a synthetic oligosaccharide was added to a tube at either 1 mg/ml or 3 mg/ml and then a serial dilution with 1% BSA-PBS was performed, before an equal volume of mAb (1B1, 3B8 or 3C4) was added at a constant concentration of 10 μg/ml in 1% BSA-PBS, this mixture was incubated for 1 h at RT. Following washing of the EIA plate with PBS-T, 100 μl from the mixed tubes was added to the plate and allowed to incubate for 1 h at RT for LPS coated plates, or 3 h at RT for killed whole cell coated plates. Following washing with PBS-T, the appropriate AP-labeled goat anti-mouse Ig (Southern Biotech) specific for the mAb used, diluted 1:250 in 1% BSA-PBS, was added for 1 h at RT. The plates were then washed with PBS-T and developed with Phosphatase Substrate System (Kirkegaard and Perry Laboratories). After 60 min, absorbance was measured at 405 nm using a microtiter plate reader. […]

A further experiment has as its system 1B1 IgM. Put plainly: SPR binding of synthetic oligosaccharides to 1B1 IgM surface. Also noted: species or system mouse. The note with it: for Obs Rmax (observed maximum binding response): high density 1B1 IgM surface, 25° C., HBS-EP; for Obs Rmax (observed maximum binding response) / ka / kd: two runs per oligosaccharide. How it is done:
Various concentration ranges of synthetic oligosaccharides (see Experimental) were flowed over IgM 1B1 and an irrelevant IgM, Fn 4F1. Mcat lgt2/4: control oligosaccharide.
Surface plasmon resonance (SPR): SPR binding assays were performed at 25° C. on a Biacore T200 instrument in HBS-EP running buffer (Cytiva Life Sciences, Mississauga, Canada), essentially as described previously. Briefly, approximately 13000 RUs of IgM (PA 1B1 and control Fn 4F1) were amine coupled to a CM7S sensor chip in 10 mM acetate buffer, pH 4.0 (Cytiva). Synthetic oligosaccharides were reconstituted in HBS-EP to 25 mM and a series of dilutions prepared for injection over IgM surfaces. The contact time was 60 s and the dissociation time 120 s (mono-, di-) or 180 s (tri-, tetra-, penta-). The following concentration ranges were injected: mono- (1 mM-62.5 μM), di- (200 μM-12.5 μM) and tri-, tetra- and penta- (10 μM-625 nM). Mcat lgt2/4 an oligosaccharide from Moraxella catarrhalis, served as a control and was injected at 10 μM. Surfaces were regenerated by extensive washing with HBS-EP. Reference flow cell subtracted sensorgrams were fit to a 1:1 binding model to determine binding kinetics and affinities, or affinities were determined by steady-state analysis.
Synthetic carbohydrates ranging from a monosaccharide to pentasaccharide were flowed over high density surfaces of 1B1 IgM and an irrelevant IgM, Fn 4F1.

The subject of experiment [1] is killed whole cells of P. aeruginosa strains. Put plainly: ELISA binding of mAbs to killed whole cells. To be noted: summary statement, serotype strains and clinical isolates. How it is done:
FIGS. 11A, 11B, and 11C show ELISA analysis of binding of 1B1 (FIG. 11A), 3B8 (FIG. 11B), and 3C4 (FIG. 11C) purified monoclonal antibodies (mAbs) (all at 100 μg/ml) to killed whole cells of P. aeruginosa strains NRCC #'s 6678, 6668-70, 6954-60 and negative control strains M. catarrhalis 6541 and N. meningitidis 6263 (see Table 1 for full details of strains).
ELISA: The binding of anti-P. aeruginosa A-band terminal epitope mAbs and polyclonal sera to BSA conjugates, purified LPS and to whole cells was evaluated by ELISA as described previously.

A further experiment has as its system purified PAO1 LPS. Put plainly: mAb competition ELISA. The class given is binding, P. aeruginosa. The note with it: PAO1 LPS coated plates; 3C4 at 62.5 μg/ml. How it is done:
The plate was washed and mAb 3C4 was added at a constant concentration (62.5 μg/ml). A secondary mAb specific for mAb 3C4 was added and absorbance was measured after a colour reagent was added (line with square markers). The absorbance obtained when 3C4 was added to the plate without 1B1 competition is shown by the line with a triangle marker.
The plate was washed and mAb 3C4 was added at a constant concentration (62.5 μg/ml). A secondary mAb specific for mAb 3C4 was added and absorbance was measured after a colour reagent was added (line with square markers). The absorbance obtained when 3C4 was added to plate without 3B8 competition is shown by the line with a triangle marker.
mAb competition ELISA: Wells of Nunc Maxisorp EIA plates were coated with 1 μg of P. aeruginosa LPS in PBS overnight at 4° C. and then brought to RT before use. Plates were blocked with 1% BSA-PBS for 1 h at RT, and then wells were washed with PBS-T. One mAb (1B1 or 3B8) was titrated and added to the plate for 1 h at RT. Following washing with PBS-T, the second mAb (3C4) was added at a pre-determined concentration and allowed to incubate for 1 h at RT. Following washing with PBS-T, AP-labeled goat anti-mouse IgG2b (Southern Biotech) specific for mAb 3C4, diluted 1:250 in 1% BSA-PBS was added for 1 h at RT. The plates were then washed with PBS-T and developed with Phosphatase Substrate System (Kirkegaard and Perry Laboratories). After 60 min absorbance was measured at 405 nm using a microtiter plate reader.

Setting [2] is: 1:1 binding model, table: two runs, text: one value per oligosaccharide, read-out: KD.
The mark [3] stands for this setting: 1:1 binding model, listed as Tri-.

Several values for one entry are separate records, joined by “and”; a condition that tells them apart may be missing. Equal values may be shown once. Read-outs that look alike come from different tables or passages of the source.

With `CO[C@@H]([C@H](O)[C@@H](C)O)[C@H](O)C=O` [D-monosaccharide, 3-O-Methyl-D-rhamnose], the “inhibition of binding of mAb 1B1 to its target LPS and killed whole cells” value (shortened to “inhibition of binding of mAb 1B1”) in the experiment on mAb 1B1 was “some evidence of inhibition”.
Turning to `CO[C@@H]1[C@@H](O)[C@H](C)OC(O)[C@@H]1O` (stereo partly drawn) [L-monosaccharide, 3-O-Methyl-L-rhamnopyranose], in the experiment with mAb 1B1, the “inhibition of binding of mAb 1B1” value was “completely ineffective in inhibition”.
For `CO[C@@H]1[C@H](O)[C@@H](O[C@H]2[C@H](OC)[C@H](O)C(O)O[C@@H]2C)O[C@H](C)[C@H]1O` (stereo partly drawn) [disaccharide, 3-O-Methyl-α-D-rhamnopyranoside-(1→4)-3-O-methyl-D-rhamnopyranose], the “Obs Rmax (observed maximum binding response)” value (from here on “Obs Rmax”) with 1B1 IgM (listed as Di-) was 14 and 15. The Kd on 1B1 IgM (steady-state analysis, listed as Di-, read-out: KD, steady state affinity) was 85800 nM and 82500 nM; at 1B1 IgM (steady-state analysis, read-out: KD, steady state affinity), 84000 nM. Further, the “inhibition of binding of mAb 1B1” value with mAb 1B1 is “some evidence of inhibition”.
For the molecule `CO[C@@H]1[C@H](O)[C@@H](O[C@H]2[C@H](OC)[C@H](O)[C@@H](O[C@H]3[C@H](OC)[C@H](O)[C@@H](O[C@H]4[C@H](OC)[C@H](O)[C@@H](O[C@H]5[C@H](OC)[C@H](O)[C@@H](O)O[C@@H]5C)O[C@@H]4C)O[C@@H]3C)O[C@@H]2C)O[C@H](C)[C@H]1O` [pentasaccharide, 3-O-methyl-α-D-rhamnopyranoside-(1→4)-3-O-methyl-α-D-rhamnopyranoside-(1→4)-3-O-methyl-α-D-rhamnopyranoside-(1→4)-3-O-methyl-α-D-rhamnopyranoside-(1→4)-3-O-methyl-α-D-rhamnopyranose], the Kd on 1B1 IgM (1:1 binding model, table: two runs, text: one value per oligosaccharide, listed as Penta-, read-out: KD) came out at 540 nM; at 1B1 IgM (setting [2]), 550 nM. Besides, the ka in the experiment on 1B1 IgM (1:1 binding model) was 3430 s⁻¹ and 5430 s⁻¹. Moreover, the kd at 1B1 IgM (1:1 binding model) was 0.00186 M⁻¹ s⁻¹ and 0.0019 M⁻¹ s⁻¹. In addition, the “Obs Rmax” value with 1B1 IgM is 34. In addition, the “inhibition of binding of mAb 1B1” value in the experiment with mAb 1B1 is on record as “effectively equivalent in inhibiting”.
`CO[C@@H]1[C@H](O)[C@@H](O[C@H]2[C@H](OC)[C@H](O)[C@@H](O[C@H]3[C@H](OC)[C@H](O)[C@@H](O[C@H]4[C@H](OC)[C@H](O)[C@@H](O)O[C@@H]4C)O[C@@H]3C)O[C@@H]2C)O[C@H](C)[C@H]1O` [tetrasaccharide, 3-O-methyl-α-D-rhamnopyranoside-(1→4)-3-O-methyl-α-D-rhamnopyranoside-(1→4)-3-O-methyl-α-D-rhamnopyranoside-(1→4)-3-O-methyl-α-D-rhamnopyranose]: the Kd came out at 650 nM at 1B1 IgM (1:1 binding model, table: two runs, text: one value per oligosaccharide, listed as Tetra-, read-out: KD) and 660 nM on 1B1 IgM (setting [2]). Besides, in the experiment on 1B1 IgM (1:1 binding model), the ka was 5690 s⁻¹ and 5260 s⁻¹. Besides, on 1B1 IgM (1:1 binding model), the kd is 0.00372 M⁻¹ s⁻¹ and 0.00348 M⁻¹ s⁻¹. Also, the “Obs Rmax” value in the experiment with 1B1 IgM is 28 and 29. Besides, the “inhibition of binding of mAb 1B1” value in the experiment with mAb 1B1 is “effectively equivalent in inhibiting”.
Turning to `CO[C@@H]1[C@H](O)[C@@H](O[C@H]2[C@H](OC)[C@H](O)[C@@H](O[C@H]3[C@H](OC)[C@H](O)[C@@H](O)O[C@@H]3C)O[C@@H]2C)O[C@H](C)[C@H]1O` [trisaccharide, 3-O-methyl-α-D-rhamnopyranoside-(1→4)-3-O-methyl-α-D-rhamnopyranoside-(1→4)-3-O-methyl-α-D-rhamnopyranose], the dissociation constant (Kd) on 1B1 IgM (1:1 binding model, table: two runs, text: one value per oligosaccharide, listed as Tri-, read-out: KD) is 1370 nM and 1460 nM; on 1B1 IgM (setting [2]), 1420 nM. Moreover, in the experiment with 1B1 IgM (setting [3]), the ka is 12800 s⁻¹ and 12300 s⁻¹. Also, on 1B1 IgM (setting [3]), the kd was 0.0176 M⁻¹ s⁻¹ and 0.0179 M⁻¹ s⁻¹. In the experiment with 1B1 IgM, the “Obs Rmax” value is 21. Also, the “inhibition of binding of mAb 1B1” value with mAb 1B1 was “effectively equivalent in inhibiting”; in the experiment with mAb 1B1 (listed as 3-O-methyl rhamnan trisaccharide), “effectively inhibited”.

B1: 3B8: mouse IgM monoclonal antibody to the A-PS terminus; VH SEQ ID NO: 13, VL SEQ ID NO: 17 (antibody, V domains shown)
VH: EIQLQQSGPELVKPGASVKVSCKASGYSFTDYNMYWVKQSHGKSLEWVGYIDPYNGGTTYNQKFKGKATLTVDKSSSTAFMHLNSLTSEDSAVYYCAKGGYRYDAWFAYWGQGTLVTVSA
VL: DAVMTQTPLSLPVSLGDHASISCRSSQSLENNNGNTYLNWYLQKPGQSPQLLIYRVSNRFSGVLDRFSGSGSGTDFTLKISRVEAEDLGVYFCLQVTHVPWTFGGGTKLEIK
As for B1, the “range of P. aeruginosa strains recognised” value in experiment [1] is “recognition restricted to the wt serotype 5 strains PAO1 BAA-47 and 5937”. In addition, the “epitope relation in competition ELISA with mAb 3C4” value with purified PAO1 LPS is reported as “recognised similar overlapping epitopes”.
